Laboratory results taken from US12077503B2, “Substituted cyclic amides and their use as herbicides” (FMC CORPORATION, priority 2015, dated 2024).

What was measured:
Type in all cases: in vivo
Kochia (Kochia scoparia) [1] = assay: Test A preemergence; details: for Kochia plant response rating (0 to 100 scale, 0 is no effect, 100 is complete control): Preemergence
Method in brief: (§1)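 Preemergence directed soil spray on seeded pots, or postemergence application to plants 2–10 cm, one- to two-leaf. Solvent mixture non-phytotoxic, with surfactant. Scored ~10 d later, visually, 0–100 vs untreated.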

[2] = tested on: barnyardgrass (Echinochloa crus-galli); assay: Test A preemergence; details: for Barnyardgrass plant response rating (0 to 100 scale, 0 is no effect, 100 is complete control): Preemergence
Method in brief: as §1

[3] = tested on: giant foxtail (Setaria faberii); assay: Test A preemergence; details: for Foxtail, Giant plant response rating (0 to 100 scale, 0 is no effect, 100 is complete control): Preemergence
Method in brief: as §1

[4] = tested on: pigweed (Amaranthus retroflexus); assay: Test A preemergence; details: for Pigweed plant response rating (0 to 100 scale, 0 is no effect, 100 is complete control): Preemergence
[5] = tested on: ragweed (common ragweed, Ambrosia elatior); assay: Test A preemergence; details: for Ragweed plant response rating (0 to 100 scale, 0 is no effect, 100 is complete control): Preemergence
Method in brief: as §1

[6] = tested on: ryegrass, Italian (Italian ryegrass, Lolium multiflorum); assay: Test A preemergence; details: for Ryegrass, Italian plant response rating (0 to 100 scale, 0 is no effect, 100 is complete control): Preemergence
Method in brief: as §1

[7] = tested on: Galium (catchweed bedstraw, Galium aparine); assay: Test A postemergence
Method in brief: as §1

Kochia (Kochia scoparia) [8] = assay: Test A postemergence
Method in brief: as §1

[9] = tested on: barnyardgrass (Echinochloa crus-galli); assay: Test A postemergence
Method in brief: as §1

[10] = tested on: blackgrass (Alopecurus myosuroides); assay: Test A postemergence
Method in brief: as §1

corn (Zea mays) = assay: Test A postemergence
Method in brief: as §1

[11] = tested on: giant foxtail (Setaria faberii); assay: Test A postemergence
Method in brief: as §1

[12] = tested on: pigweed (Amaranthus retroflexus); assay: Test A postemergence
Method in brief: as §1

[13] = tested on: ragweed (common ragweed, Ambrosia elatior); assay: Test A postemergence
Method in brief: as §1

[14] = tested on: ryegrass, Italian (Italian ryegrass, Lolium multiflorum); assay: Test A postemergence
Method in brief: as §1

[15] = tested on: wheat (Triticum aestivum); assay: Test A postemergence
Method in brief: as §1

[16] = tested on: barnyardgrass (Echinochloa crus-galli); assay: Test B flooded paddy test; details: Flood
Method in brief: (§2)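 Greenhouse paddy pots with 2-leaf stage plants received compound by direct addition to floodwater 3 cm deep, kept at that level. Scored visually at 13–15 d versus controls (0 no effect; 100 complete control).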

[17] = tested on: ducksalad (Heteranthera limosa); assay: Test B flooded paddy test; details: Flood
Method in brief: as §2

rice (Oryra sativa) = assay: Test B flooded paddy test; details: Flood
Method in brief: as §2

[18] = tested on: sedge, umbrella (small-flower umbrella sedge, Cyperus difformis); assay: Test B flooded paddy test; details: Flood, 0 to 100 scale where 0 is no effect and 100 is complete control
Method in brief: as §2

[19] = 125 g ai/ha, preemergence, 0 to 100 scale (0 no effect, 100 complete control)
[20] = 500 g ai/ha, visual injury approx. 10 d
[21] = 125 g ai/ha, postemergence, visual injury rating on 0 to 100 scale (0 no effect, 100 complete control), approx. 10 d
[22] = 500 g ai/ha, postemergence, 0 to 100 scale, 0 no effect, 100 complete control
[23] = 500 g ai/ha, 0 to 100 scale where 0 is no effect and 100 is complete control, 13 to 15 d
[24] = 125 g ai/ha, visual injury rating after approximately 10 d
[25] = 500 g ai/ha, preemergence, visual injury rating about 10 d after treatment, 0 to 100 scale (0 no effect, 100 complete control)
[26] = 125 g ai/ha, Postemergence, visual injury after approximately 10 d, 0 to 100 scale where 0 is no effect and 100 is complete control
[27] = 250 g ai/ha, scale of 0 to 100 where 0 is no effect and 100 is complete control

Structure (SMILES): Cc1cc(NC(=O)C2C(=O)NCC2c2ccc(F)c(F)c2)ccc1F (centres unmarked) [Compound 412]
- Plant response rating, Kochia (Kochia (Kochia scoparia) [1]; [19]): 0
- Kochia plant response rating (0 to 100 scale, 0 is no effect, 100 is complete control) (Kochia (Kochia scoparia) [1]; [20]): 0
- Plant response rating, Barnyardgrass [2, 19]: 40
- Barnyardgrass plant response rating (0 to 100 scale, 0 is no effect, 100 is complete control) [2, 20]: 70
- Plant response rating, Foxtail, Giant [3, 19]: 60
- Foxtail, Giant plant response rating (0 to 100 scale, 0 is no effect, 100 is complete control) [3, 20]: 70
- Plant response rating, Pigweed [4, 19]: 0
- Pigweed plant response rating (0 to 100 scale, 0 is no effect, 100 is complete control) [4, 20]: 0
- Plant response rating, Ragweed [5, 19]: 0
- Ragweed plant response rating (0 to 100 scale, 0 is no effect, 100 is complete control) [5, 20]: 0
- Plant response rating, Ryegrass, Italian [6, 19]: 0
- Ryegrass, Italian plant response rating (0 to 100 scale, 0 is no effect, 100 is complete control) [6, 20]: 0
- Galium plant response rating [7, 21]: 0
- Plant response rating, Galium [7, 22]: 0
- Kochia plant response rating (Kochia (Kochia scoparia) [8]; [21]): 0
- Plant response rating, Kochia (Kochia (Kochia scoparia) [8]; [22]): 0
- Barnyardgrass plant response rating [9, 21]: 0
- Plant response rating, Barnyardgrass [9, 22]: 0
- Blackgrass plant response rating [10, 21]: 0
- Plant response rating, Blackgrass [10, 22]: 0
- Corn plant response rating (corn (Zea mays); [21]): 0
- Plant response rating, Corn (corn (Zea mays); [22]): 0
- Foxtail, Giant plant response rating [11, 21]: 0
- Plant response rating, Foxtail, Giant [11, 22]: 0
- Pigweed plant response rating [12, 21]: 0
- Plant response rating, Pigweed [12, 22]: 0
- Ragweed plant response rating [13, 21]: 0
- Plant response rating, Ragweed [13, 22]: 0
- Ryegrass, Italian plant response rating [14, 21]: 0
- Plant response rating, Ryegrass, Italian [14, 22]: 0
- Wheat plant response rating [15, 21]: 0
- Plant response rating, Wheat [15, 22]: 0
- Plant response rating, Barnyardgrass [16, 23]: 0
- Plant response rating, Ducksalad [17, 23]: 30
- Plant response rating, Rice (rice (Oryra sativa); [23]): 0
- Plant response rating, Sedge, Umbrella ([18]; 500 g ai/ha, 13 to 15 d): 0

Structure (SMILES): Cc1ccc([C@H]2CN(C)C(=O)[C@@H]2C(=O)Nc2ccccc2[S+](C)[O-])cc1F (some centres unmarked) [Compound 988]
- Kochia plant response rating (0 to 100 scale, 0 is no effect, 100 is complete control) (Kochia (Kochia scoparia) [1]; [24]): 30
- Kochia plant response rating (Kochia (Kochia scoparia) [1]; [25]): 80
- Barnyardgrass plant response rating (0 to 100 scale, 0 is no effect, 100 is complete control) [2, 24]: 90
- Barnyardgrass plant response rating [2, 25]: 90
- Foxtail, Giant plant response rating (0 to 100 scale, 0 is no effect, 100 is complete control) [3, 24]: 90
- Foxtail, Giant plant response rating [3, 25]: 90
- Pigweed plant response rating (0 to 100 scale, 0 is no effect, 100 is complete control) [4, 24]: 30
- Pigweed plant response rating [4, 25]: 40
- Ragweed plant response rating (0 to 100 scale, 0 is no effect, 100 is complete control) [5, 24]: 50
- Ragweed plant response rating [5, 25]: 80
- Ryegrass, Italian plant response rating (0 to 100 scale, 0 is no effect, 100 is complete control) [6, 24]: 0
- Ryegrass, Italian plant response rating [6, 25]: 20
- Plant response rating, Galium [7, 26]: 50
- Plant response rating, Kochia (Kochia (Kochia scoparia) [8]; [26]): 10
- Plant response rating, Barnyardgrass [9, 26]: 80
- Plant response rating, Blackgrass [10, 26]: 30
- Plant response rating, Corn (corn (Zea mays); [26]): 20
- Plant response rating, Foxtail, Giant [11, 26]: 80
- Plant response rating, Pigweed [12, 26]: 0
- Plant response rating, Ragweed [13, 26]: 0
- Plant response rating, Ryegrass, Italian [14, 26]: 20
- Plant response rating, Wheat [15, 26]: 30
- Barnyardgrass plant response rating [16, 27]: 75
- Ducksalad plant response rating [17, 27]: 100
- Rice plant response rating (rice (Oryra sativa); [27]): 20
- Sedge, Umbrella plant response rating ([18]; 250 g ai/ha): 0
